Measurements published in paper PMC9227765 (Viruses, 2022).
Read-outs that look alike come from different tables or passages of the source.

Legend:
[1] = tested on: EV-A71 H strain; test: CPE protection assay, EV-A71 H strain (CellTiter-Glo); format: cell-based; conditions: Enterovirus A, 100× TCID50, 72 h.p.i., read-out: EC50 against EV-A71 virus
[2] = Cytotoxicity, CellTiter-Glo cell viability, RD cells; format: cell-based, Human; conditions: human, read-out: half-cytotoxic concentration (CC50)
[3] = Cytotoxicity, CellTiter-Glo cell viability, Vero cells; format: cell-based; conditions: African green monkey, read-out: half-cytotoxic concentration (CC50)
[4] = Cytotoxicity, CellTiter-Glo cell viability, Huh7 cells; format: cell-based; conditions: human, read-out: half-cytotoxic concentration (CC50)
[5] = tested on: EV-A71 AH08/06 strain; test: CPE protection assay, EV-A71 clinical isolate AH08/06; format: cell-based; conditions: Enterovirus A, EVA71, Huh-7; EV-A71 AH08/06, Huh7
[6] = tested on: CV-A6 TW-2007-00141 strain; test: CPE protection assay, CV-A6; format: cell-based, coxsackievirus A6
[7] = tested on: EV-A71 virus; test: Viral RNA reduction assay (qRT-PCR) in RD cells; format: cell-based, enterovirus A71; conditions: MOI 0.1, 30 h.p.i.
[8] = tested on: EV-A71 virus; test: Virus particle yield in supernatant (TCID50); format: cell-based, enterovirus A71; conditions: RD cells, MOI 0.1, supernatant, 30 h.p.i.
[9] = tested on: EV-A71 virus VP1 protein; test: Immunofluorescence assay of VP1; format: cell-based, enterovirus A71; conditions: MOI 1, 16 h.p.i.
[10] = tested on: EV-A71 virus VP1 protein; test: Western blot of VP1; format: cell-based, enterovirus A71; conditions: RD cells, 24 h; dose-dependent; EIDD-1931 10 to 0.63 μM, EIDD-2801 100 to 6.3 μM
[11] = tested on: EV-A71 H strain; test: Time-of-drug-addition assay (qRT-PCR); format: cell-based, enterovirus A71; conditions: RD cells, 10 μM, MOI 0.01, 30 h.p.i.
[12] = tested on: EV-A71 virus (H strain); test: Lethal EV-A71 challenge of 1-day-old ICR suckling mice: survival and body weight; format: in vivo
[13] = tested on: EV-A71 virus (H strain); test: Viral RNA loads in tissues of EV-A71-infected suckling mice (qRT-PCR); format: in vivo; conditions: 200 mg/kg i.p. for 4 consecutive days
[14] = tested on: RD cells; test: Cytotoxicity, CellTiter-Glo cell viability, RD cells; format: cell-based, Human
[15] = tested on: Vero cells; test: Cytotoxicity, CellTiter-Glo cell viability, Vero cells; format: cell-based
[16] = tested on: Huh7 cells; test: Cytotoxicity, CellTiter-Glo cell viability, Huh7 cells; format: cell-based
[17] = tested on: EV-D68 STL-2014–12 strain; test: CPE protection assay, EV-D68; format: cell-based; conditions: Enterovirus D, EVD68, EV-D68 STL-2014–12, RD
[18] = tested on: CV-A16 190-D1 strain; test: CPE protection assay, CV-A16; format: cell-based, coxsackievirus A16; conditions: Enterovirus A, CVA16, CV-A16 190-D1, RD
[19] = tested on: CV-B3 Nancy strain; test: CPE protection assay, CV-B3; format: cell-based, Coxsackievirus B3; conditions: Enterovirus B, CVB3, CV-B3 Nancy, RD
[20] = in vivo, po, 800 mg; cited from earlier work
[21] = tested on: EV-A71; set-up: method as in earlier work; conditions: cited from earlier work
[22] = Enterovirus A, CVA6, CV-A6 TW-2007-00141, RD
[23] = 66.6 mg/kg (66.67 printed for EIDD-2801) i.p. once a day for 7 days, until 21 d.p.i.
[24] = 200 mg/kg i.p. once a day for 7 days, observed until 21 d.p.i.

SMILES | EC50 ([1]; EVA71, Huh-7, Huh7 cells) | EC50 ([1]; EVA71, RD cells) | EC50 ([1]; EVA71, Vero cells) | CC50 at 72 h [2] | CC50 at 72 h [3] | CC50 at 72 h [4] | EC50 [5] | EC50 [6, 22] | replication of viral RNA (qRT-PCR) [7] | propagation of infectious viral particles [8] | expression levels of viral VP1 proteins (Western blot) [10] | survival [12, 23] | survival [12, 24] | viral RNA loads in brain, heart, intestine, liver, limb muscle and lung [13] | also measured
O=c1[nH]c(=NO)ccn1[C@@H]1O[C@H](CO)[C@@H](O)[C@H]1O [EIDD-1931, β-D-N^4-hydroxycytidine] | 4.43 ± 0.33 µM | 5.13 ± 0.56 µM | 7.04 ± 0.38 µM | 80.47 ± 0.02 µM | 14.1 ± 0.43 µM | 34.09 ± 0.06 µM | 2.79 ± 0.89 µM | < 20 µM | inhibited the replication of viral RNA in a dose-dependent manner | inhibited | significantly attenuated | all survived | all survived | significantly reduced | EC50 ([6]; CV-A6 TW-2007-00141, RD): 15.7 ± 0.38 µM; expression of EV-A71 VP1 protein (immunofluorescence) ([9]; 10 µM): almost completely blocked; EV-A71 viral RNA production, drug added at stages III and IV (post-entry) [11]: inhibited; survival protection ([12]; 22.2 mg/kg i.p. once a day for 7 days, until 21 d.p.i.): 60%; body weight ([12]; 66.6 mg/kg i.p. for 7 days, until 21 d.p.i.): good weight maintenance and growth; body weight ([12]; 200 mg/kg i.p. for 7 days, until 21 d.p.i.): good weight maintenance and growth; time within which the mice died ([12]; low-dose group 7.41 mg/kg i.p. once a day for 7 days): ≤ 12 days
CC(C)C(=O)OC[C@H]1O[C@@H](n2ccc(NO)nc2=O)[C@H](O)[C@@H]1O [EIDD-2801, molnupiravir] | 35.6 ± 0.47 µM | 70.1 ± 4.4 µM | 88.5 ± 3.18 µM | > 100 µM | > 100 µM | > 100 µM | 30.3 ± 0.55 µM | > 100 µM | inhibited the replication of viral RNA in a dose-dependent manner | inhibited | significantly attenuated | 67% | 100% | significantly reduced | half-cytotoxic concentration (CC50) [14]: no significant cytotoxicity; half-cytotoxic concentration (CC50) [15]: no significant cytotoxicity; half-cytotoxic concentration (CC50) [16]: no significant cytotoxicity; EC50 [17]: 86.2 ± 9.17 µM; EC50 [18]: 44.9 ± 4.23 µM; EC50 [19]: 87.2 ± 10.8 µM; expression of EV-A71 VP1 protein (immunofluorescence) ([9]; 100 µM): partly inhibited; Cmax [20]: 16.1 µM
C#C[C@@]1(O)[C@H](O)[C@@H](CO)O[C@H]1n1ccc2c(N)ncnc21 [NITD008, 7-Deaza-2′-C-acetylene-adenosine] |  |  |  |  |  |  |  |  |  |  |  |  |  |  | anti-EV-A71 activity [21]: potent anti-EV-A71 activity
